# Results: ChEMBL document CHEMBL5212743, “Selectivity Literature for EUbOPEN Chemogenomics Library wave 3” (2023)
# Experiments:
# [1] = target: eIF-2-alpha kinase GCN2 (Homo sapiens) (UniProt Q9P2K8); assay: Selectivity interaction (KinomeScan (DiscoverX)) EUB0000301b EIF2AK4; details: at 1 µM
# [2] = target: Cyclin-dependent kinase 8 (Homo sapiens) (UniProt P49336); assay: Selectivity interaction (KinomeScan (DiscoverX)) EUB0000301b CDK8; details: at 1 µM
# [3] = target: T1, Gamma-aminobutyric acid receptor subunit alpha-1 (Homo sapiens, UniProt P14867); assay: Selectivity interaction (GPCR panel (PDSP screen)) EUB0000301b GABRA1
# T1 sequence (P14867 whole entry): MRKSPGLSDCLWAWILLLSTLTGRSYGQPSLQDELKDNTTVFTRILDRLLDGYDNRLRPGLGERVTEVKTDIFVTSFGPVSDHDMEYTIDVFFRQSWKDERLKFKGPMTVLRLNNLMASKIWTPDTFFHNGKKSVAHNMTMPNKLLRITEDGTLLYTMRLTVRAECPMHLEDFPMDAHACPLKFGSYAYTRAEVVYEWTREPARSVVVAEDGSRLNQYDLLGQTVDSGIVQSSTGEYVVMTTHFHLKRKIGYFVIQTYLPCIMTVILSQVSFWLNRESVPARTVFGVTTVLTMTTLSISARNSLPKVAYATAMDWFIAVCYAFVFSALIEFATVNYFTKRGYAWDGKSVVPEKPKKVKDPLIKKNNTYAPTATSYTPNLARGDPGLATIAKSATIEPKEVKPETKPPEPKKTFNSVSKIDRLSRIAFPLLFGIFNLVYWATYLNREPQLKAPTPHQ
# [4] = target: Neutrophil collagenase (Homo sapiens, UniProt P22894); assay: Selectivity interaction (MMPs panel (FRET assay)) EUB0000730a MMP8
# [5] = target: T2, Matrilysin (Homo sapiens, UniProt P09237); assay: Selectivity interaction (MMPs panel (FRET assay)) EUB0000730a MMP7
# T2 sequence (P09237 whole entry): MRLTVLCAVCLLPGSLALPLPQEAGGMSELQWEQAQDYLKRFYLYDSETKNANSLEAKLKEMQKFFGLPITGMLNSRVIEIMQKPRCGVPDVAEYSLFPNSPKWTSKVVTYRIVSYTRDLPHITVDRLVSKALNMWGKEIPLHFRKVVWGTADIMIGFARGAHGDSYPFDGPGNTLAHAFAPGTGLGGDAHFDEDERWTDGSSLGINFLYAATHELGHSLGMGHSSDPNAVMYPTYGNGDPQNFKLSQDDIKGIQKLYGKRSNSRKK
# [6] = target: Stromelysin-1 (Homo sapiens, UniProt P08254); assay: Selectivity interaction (MMPs panel (FRET assay)) EUB0000730a MMP3
# [7] = target: 5'-AMP-activated protein kinase catalytic subunit alpha-1 (Homo sapiens, UniProt Q13131); assay: Selectivity interaction (Enzyme panel (Invitrogen)) EUB0000730a PRKAA1
# [8] = target: Interstitial collagenase (Homo sapiens, UniProt P03956); assay: Selectivity interaction (MMPs panel (FRET assay)) EUB0000730a MMP1
# [9] = target: Macrophage metalloelastase (Homo sapiens, UniProt P39900); assay: Selectivity interaction (MMPs panel (FRET assay)) EUB0000730a MMP12
# [10] = target: T3, D(1B) dopamine receptor (Homo sapiens, UniProt P21918); assay: Selectivity interaction (GPCR panel (PDSP screen)) EUB0000730a DRD5
# [11] = target: Aurora kinase A (Homo sapiens, UniProt O14965); assay: Selectivity interaction (Enzyme panel (Invitrogen)) EUB0000730a STK6
# [12] = target: cAMP-dependent protein kinase catalytic subunit alpha (Homo sapiens, UniProt P17612); assay: Selectivity interaction (Enzyme panel (Invitrogen)) EUB0000730a PRKACA
# [13] = target: T3, D(1B) dopamine receptor; details: at 10 µM
# [14] = target: MAP kinase-activated protein kinase 2 (Homo sapiens, UniProt P49137); assay: Selectivity interaction (Enzyme panel (Invitrogen)) EUB0000730a MAPKAPK2
# [15] = target: Cyclin-dependent kinase-like 3 (Homo sapiens) (UniProt Q8IVW4); details: at 100 nM
# [16] = target: Cyclin-dependent kinase 19 (Homo sapiens) (UniProt Q9BWU1); details: at 100 nM
# [17] = target: Cyclin-dependent kinase 3 (Homo sapiens) (UniProt Q00526); details: at 100 nM
# [18] = target: Sigma intracellular receptor 2 (Homo sapiens, UniProt Q5BJF2); assay: Selectivity interaction (GPCR panel (PDSP screen)) EUB0000310b TMEM97
# [19] = target: Voltage-dependent L-type calcium channel subunit alpha-1C (Homo sapiens, UniProt Q13936); assay: Selectivity interaction (Eurofins Panlabs panel (receptors, ion channel, and other enzymes)) EUB0000310b CACNA1C; details: at 10 µM
# [20] = target: Serine/threonine-protein kinase 38-like (Homo sapiens, UniProt Q9Y2H1); assay: Selectivity interaction (KinomeScan (DiscoverX)) EUB0000310b STK38L
# [21] = target: STE20/SPS1-related proline-alanine-rich protein kinase (Homo sapiens) (UniProt Q9UEW8); assay: Selectivity interaction (KinomeScan (DiscoverX)) EUB0000310b STK39
# [22] = target: Interferon-induced, double-stranded RNA-activated protein kinase (Homo sapiens) (UniProt P19525); assay: Selectivity interaction (KinomeScan (DiscoverX)) EUB0000310b EIF2AK2
# [23] = target: Serine/threonine-protein kinase PAK 2 (Homo sapiens) (UniProt Q13177); assay: Selectivity interaction (KinomeScan (DiscoverX)) EUB0000727a PAK2
# [24] = target: Serine/threonine-protein kinase mTOR (Homo sapiens) (UniProt P42345); assay: Selectivity interaction (KinomeScan (DiscoverX)) EUB0000727a MTOR; details: at 100 nM
# [25] = target: T3, D(1B) dopamine receptor; assay: Selectivity interaction (GPCR panel (PDSP screen)) EUB0000727a DRD5
# [26] = target: SRSF protein kinase 1 (Homo sapiens) (UniProt Q96SB4); assay: Selectivity interaction (KinomeScan (DiscoverX)) EUB0000727a SRPK1; details: at 100 nM
# [27] = target: T4, Sodium-dependent dopamine transporter (Homo sapiens, UniProt Q01959); assay: Selectivity interaction (GPCR panel (PDSP screen)) EUB0000541a SLC6A3
# [28] = target: T5, G protein-coupled receptor kinase 3 (Homo sapiens) (UniProt P35626); assay: Selectivity interaction (KinomeScan (DiscoverX)) EUB0001135a ADRBK2; details: at 1 µM
# T5 sequence (whole entry): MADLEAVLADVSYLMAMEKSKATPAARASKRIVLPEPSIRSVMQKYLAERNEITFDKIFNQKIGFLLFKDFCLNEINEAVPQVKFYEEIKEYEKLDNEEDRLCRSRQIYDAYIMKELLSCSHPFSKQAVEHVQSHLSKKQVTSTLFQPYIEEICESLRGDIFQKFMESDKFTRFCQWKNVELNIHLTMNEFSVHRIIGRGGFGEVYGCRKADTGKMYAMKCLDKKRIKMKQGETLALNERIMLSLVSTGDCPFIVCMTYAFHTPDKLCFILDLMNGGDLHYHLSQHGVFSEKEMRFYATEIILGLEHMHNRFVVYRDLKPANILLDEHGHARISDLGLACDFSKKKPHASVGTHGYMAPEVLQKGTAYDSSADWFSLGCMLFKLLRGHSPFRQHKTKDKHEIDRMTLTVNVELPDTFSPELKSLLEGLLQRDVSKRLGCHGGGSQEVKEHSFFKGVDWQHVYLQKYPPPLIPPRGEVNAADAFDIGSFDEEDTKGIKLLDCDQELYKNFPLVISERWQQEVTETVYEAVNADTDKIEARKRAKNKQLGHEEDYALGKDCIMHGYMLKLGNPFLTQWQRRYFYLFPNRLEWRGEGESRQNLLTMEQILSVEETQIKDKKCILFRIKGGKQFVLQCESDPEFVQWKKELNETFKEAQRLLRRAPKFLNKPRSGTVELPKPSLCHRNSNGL
# [29] = target: G protein-coupled receptor kinase 3 (Homo sapiens, UniProt P35626); assay: Selectivity interaction (KinomeScan (DiscoverX, competition-binding assay)) EUB0001135a ADRBK2
# [30] = target: T6, Death-associated protein kinase 3 (Homo sapiens, UniProt O43293); assay: Selectivity interaction (KinomeScan (DiscoverX)) EUB0001135a DAPK3; details: at 1 µM
# Target sequence in this assay (O43293 whole entry, looked up): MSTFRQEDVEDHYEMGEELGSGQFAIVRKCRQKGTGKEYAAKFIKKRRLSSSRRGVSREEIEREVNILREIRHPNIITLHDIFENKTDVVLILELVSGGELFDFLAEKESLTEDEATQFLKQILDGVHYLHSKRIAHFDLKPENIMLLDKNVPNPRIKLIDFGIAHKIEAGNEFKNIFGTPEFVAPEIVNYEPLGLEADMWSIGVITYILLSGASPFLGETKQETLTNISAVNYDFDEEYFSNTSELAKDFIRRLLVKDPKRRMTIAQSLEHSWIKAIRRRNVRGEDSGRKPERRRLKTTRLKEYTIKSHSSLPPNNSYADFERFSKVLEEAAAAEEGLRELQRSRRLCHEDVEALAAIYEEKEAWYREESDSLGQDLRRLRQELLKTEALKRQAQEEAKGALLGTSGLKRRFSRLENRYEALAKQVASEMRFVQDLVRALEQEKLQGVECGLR
# [31] = target: Beta-3 adrenergic receptor (Homo sapiens, UniProt P13945); assay: Selectivity interaction (GPCR panel (PDSP screen)) EUB0001135a ADRB3; details: at 10 µM
# [32] = target: Histamine H1 receptor (Homo sapiens, UniProt P35367); assay: Selectivity interaction (GPCR panel (PDSP screen)) EUB0001135a HRH1; details: at 10 µM
# [33] = target: T6, Death-associated protein kinase 3; assay: Selectivity interaction (KinomeScan (DiscoverX, competition-binding assay)) EUB0001135a DAPK3
# Target sequence in this assay (O43293 whole entry): as the sequence (O43293 whole entry, looked up) above
# [34] = target: Phosphatidylinositol 3-kinase C2 domain-containing subunit gamma (Homo sapiens) (UniProt O75747); assay: Selectivity interaction (KinomeScan (DiscoverX)) EUB0000007b PIK3C2G; details: at 1 µM
# [35] = target: Transcription initiation factor TFIID subunit 1 (Homo sapiens, UniProt P21675); assay: Selectivity interaction (BRD panel (HTRF assay)) EUB0000007b TAF1
# [36] = target: Dual specificity mitogen-activated protein kinase kinase 1 (Homo sapiens, UniProt Q02750); assay: Selectivity interaction (Kinase panel (enzymatic assay)) EUB0000684a MAP2K1
# [37] = target: Dual specificity mitogen-activated protein kinase kinase 2 (Homo sapiens, UniProt P36507); assay: Selectivity interaction (Kinase panel (enzymatic assay)) EUB0000684a MAP2K2
# [38] = target: T1, Gamma-aminobutyric acid receptor subunit alpha-1; assay: Selectivity interaction (GPCR panel (PDSP screen)) EUB0000297b GABRA1
# [39] = target: Rho-associated protein kinase 1 (Homo sapiens) (UniProt Q13464); assay: Selectivity interaction (KinomeScan (DiscoverX)) EUB0000297b ROCK1; details: at 1 µM
# [40] = target: Dual specificity tyrosine-phosphorylation-regulated kinase 1B (Homo sapiens, UniProt Q9Y463); assay: Selectivity interaction (KinomeScan (DiscoverX)) EUB0000297b DYRK1B; details: at 1 µM
# [41] = target: T4, Sodium-dependent dopamine transporter; assay: Selectivity interaction (GPCR panel (PDSP screen)) EUB0000741a SLC6A3
# T3 sequence (P21918 whole entry): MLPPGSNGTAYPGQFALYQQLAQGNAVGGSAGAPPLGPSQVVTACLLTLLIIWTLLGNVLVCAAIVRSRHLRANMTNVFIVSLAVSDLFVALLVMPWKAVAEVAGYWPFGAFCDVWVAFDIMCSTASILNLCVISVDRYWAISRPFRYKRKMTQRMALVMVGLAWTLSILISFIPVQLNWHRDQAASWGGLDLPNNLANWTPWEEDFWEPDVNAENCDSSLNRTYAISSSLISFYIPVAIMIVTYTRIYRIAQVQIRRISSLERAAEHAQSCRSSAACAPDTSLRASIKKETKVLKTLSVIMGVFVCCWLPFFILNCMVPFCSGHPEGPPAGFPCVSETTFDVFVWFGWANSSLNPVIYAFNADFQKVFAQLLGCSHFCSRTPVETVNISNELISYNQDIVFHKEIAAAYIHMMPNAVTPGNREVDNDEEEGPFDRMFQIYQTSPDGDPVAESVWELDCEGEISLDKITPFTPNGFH
# T4 sequence (Q01959 whole entry): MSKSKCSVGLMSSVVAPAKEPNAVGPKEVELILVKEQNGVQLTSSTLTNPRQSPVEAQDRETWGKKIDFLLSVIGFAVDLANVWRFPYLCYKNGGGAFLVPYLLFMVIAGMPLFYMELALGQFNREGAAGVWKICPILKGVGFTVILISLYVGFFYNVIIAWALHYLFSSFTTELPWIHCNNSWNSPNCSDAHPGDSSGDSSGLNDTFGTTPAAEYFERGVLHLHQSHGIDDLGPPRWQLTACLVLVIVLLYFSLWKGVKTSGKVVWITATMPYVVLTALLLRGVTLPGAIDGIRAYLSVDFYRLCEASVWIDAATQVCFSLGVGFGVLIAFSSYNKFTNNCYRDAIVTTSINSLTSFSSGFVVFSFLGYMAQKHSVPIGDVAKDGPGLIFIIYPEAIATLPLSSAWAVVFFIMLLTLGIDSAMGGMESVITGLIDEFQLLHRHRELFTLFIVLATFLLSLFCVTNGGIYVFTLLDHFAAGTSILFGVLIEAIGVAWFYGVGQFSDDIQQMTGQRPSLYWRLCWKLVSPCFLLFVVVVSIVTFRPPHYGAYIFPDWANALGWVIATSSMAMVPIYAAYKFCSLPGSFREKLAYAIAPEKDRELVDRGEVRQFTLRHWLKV
# Interferon-induced, double-stranded RNA-activated protein kinase (Homo sapiens), sequence (P19525 whole entry): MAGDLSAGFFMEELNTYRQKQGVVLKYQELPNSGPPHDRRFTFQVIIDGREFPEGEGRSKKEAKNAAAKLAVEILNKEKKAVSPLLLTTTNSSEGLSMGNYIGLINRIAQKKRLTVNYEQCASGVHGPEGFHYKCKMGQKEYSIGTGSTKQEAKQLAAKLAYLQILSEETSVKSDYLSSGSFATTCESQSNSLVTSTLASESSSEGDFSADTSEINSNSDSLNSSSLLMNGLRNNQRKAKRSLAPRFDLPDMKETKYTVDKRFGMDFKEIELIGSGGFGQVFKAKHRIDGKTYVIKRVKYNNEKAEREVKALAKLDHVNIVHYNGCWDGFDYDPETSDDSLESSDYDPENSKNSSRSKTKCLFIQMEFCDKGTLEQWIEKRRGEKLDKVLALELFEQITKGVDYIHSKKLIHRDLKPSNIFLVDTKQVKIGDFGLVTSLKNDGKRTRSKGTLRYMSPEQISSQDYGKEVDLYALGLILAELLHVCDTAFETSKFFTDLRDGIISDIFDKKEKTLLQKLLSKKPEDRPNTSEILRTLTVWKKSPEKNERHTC
# Macrophage metalloelastase, sequence (P39900 whole entry): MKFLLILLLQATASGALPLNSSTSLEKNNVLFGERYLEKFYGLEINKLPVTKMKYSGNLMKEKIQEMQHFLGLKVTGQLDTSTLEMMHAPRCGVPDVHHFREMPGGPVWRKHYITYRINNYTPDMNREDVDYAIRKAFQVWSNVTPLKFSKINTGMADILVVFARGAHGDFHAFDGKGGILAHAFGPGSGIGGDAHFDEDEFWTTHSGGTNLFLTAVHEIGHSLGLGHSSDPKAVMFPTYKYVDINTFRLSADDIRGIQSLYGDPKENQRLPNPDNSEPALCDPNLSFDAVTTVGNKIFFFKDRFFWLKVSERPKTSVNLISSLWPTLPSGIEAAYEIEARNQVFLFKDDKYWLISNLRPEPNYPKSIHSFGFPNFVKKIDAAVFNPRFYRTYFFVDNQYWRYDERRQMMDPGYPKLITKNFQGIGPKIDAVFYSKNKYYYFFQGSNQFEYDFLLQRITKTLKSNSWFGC
# Aurora kinase A, sequence (O14965 whole entry): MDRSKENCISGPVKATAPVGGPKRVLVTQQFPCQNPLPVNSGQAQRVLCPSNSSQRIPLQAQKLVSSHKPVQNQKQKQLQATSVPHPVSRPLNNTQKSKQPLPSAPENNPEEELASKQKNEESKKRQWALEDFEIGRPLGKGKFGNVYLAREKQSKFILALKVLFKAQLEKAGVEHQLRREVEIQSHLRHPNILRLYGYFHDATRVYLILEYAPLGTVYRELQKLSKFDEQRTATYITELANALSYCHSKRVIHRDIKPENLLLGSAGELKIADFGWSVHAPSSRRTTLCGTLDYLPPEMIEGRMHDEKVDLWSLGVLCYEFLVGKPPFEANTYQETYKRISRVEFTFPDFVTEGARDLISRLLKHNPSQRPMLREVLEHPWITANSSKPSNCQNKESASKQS
# Cyclin-dependent kinase-like 3 (Homo sapiens), sequence (Q8IVW4 whole entry, looked up): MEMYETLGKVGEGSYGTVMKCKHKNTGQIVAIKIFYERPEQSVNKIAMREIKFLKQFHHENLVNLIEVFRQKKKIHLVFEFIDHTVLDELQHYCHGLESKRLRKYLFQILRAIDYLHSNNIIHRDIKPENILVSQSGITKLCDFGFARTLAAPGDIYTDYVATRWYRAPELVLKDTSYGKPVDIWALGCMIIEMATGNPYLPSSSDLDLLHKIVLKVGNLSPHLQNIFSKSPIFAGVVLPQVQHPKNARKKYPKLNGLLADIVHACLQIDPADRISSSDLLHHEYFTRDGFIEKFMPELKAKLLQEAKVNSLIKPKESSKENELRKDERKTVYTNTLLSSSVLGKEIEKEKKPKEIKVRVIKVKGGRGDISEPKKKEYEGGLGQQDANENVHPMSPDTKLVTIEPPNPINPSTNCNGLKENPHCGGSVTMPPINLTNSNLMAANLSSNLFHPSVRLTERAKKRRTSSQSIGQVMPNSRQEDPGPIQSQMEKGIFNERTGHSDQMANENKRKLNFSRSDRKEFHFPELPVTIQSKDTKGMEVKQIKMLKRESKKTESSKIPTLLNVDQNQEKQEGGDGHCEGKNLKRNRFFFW
# Interstitial collagenase, sequence (P03956 whole entry): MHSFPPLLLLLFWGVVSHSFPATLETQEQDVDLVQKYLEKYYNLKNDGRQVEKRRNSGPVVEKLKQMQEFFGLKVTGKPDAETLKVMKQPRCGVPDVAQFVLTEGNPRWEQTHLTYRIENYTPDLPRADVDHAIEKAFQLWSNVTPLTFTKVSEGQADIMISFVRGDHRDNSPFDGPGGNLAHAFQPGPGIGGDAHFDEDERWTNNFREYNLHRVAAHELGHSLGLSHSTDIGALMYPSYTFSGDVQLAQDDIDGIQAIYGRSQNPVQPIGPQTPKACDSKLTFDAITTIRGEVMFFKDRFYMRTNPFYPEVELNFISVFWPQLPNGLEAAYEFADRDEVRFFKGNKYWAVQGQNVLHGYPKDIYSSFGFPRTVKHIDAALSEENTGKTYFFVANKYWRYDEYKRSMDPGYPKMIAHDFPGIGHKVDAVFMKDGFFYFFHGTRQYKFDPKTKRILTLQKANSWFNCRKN
# MAP kinase-activated protein kinase 2, sequence (P49137 whole entry): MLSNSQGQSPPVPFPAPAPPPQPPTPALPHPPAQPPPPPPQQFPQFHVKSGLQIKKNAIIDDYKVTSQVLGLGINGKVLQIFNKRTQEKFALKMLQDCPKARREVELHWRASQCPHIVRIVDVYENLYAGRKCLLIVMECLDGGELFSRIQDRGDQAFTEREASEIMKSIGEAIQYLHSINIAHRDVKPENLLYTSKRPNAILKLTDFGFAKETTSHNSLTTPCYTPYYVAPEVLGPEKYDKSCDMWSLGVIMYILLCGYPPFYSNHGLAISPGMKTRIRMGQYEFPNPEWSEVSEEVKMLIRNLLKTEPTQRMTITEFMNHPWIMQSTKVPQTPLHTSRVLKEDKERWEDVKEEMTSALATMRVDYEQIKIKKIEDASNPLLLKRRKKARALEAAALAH
# Neutrophil collagenase, sequence (P22894 whole entry): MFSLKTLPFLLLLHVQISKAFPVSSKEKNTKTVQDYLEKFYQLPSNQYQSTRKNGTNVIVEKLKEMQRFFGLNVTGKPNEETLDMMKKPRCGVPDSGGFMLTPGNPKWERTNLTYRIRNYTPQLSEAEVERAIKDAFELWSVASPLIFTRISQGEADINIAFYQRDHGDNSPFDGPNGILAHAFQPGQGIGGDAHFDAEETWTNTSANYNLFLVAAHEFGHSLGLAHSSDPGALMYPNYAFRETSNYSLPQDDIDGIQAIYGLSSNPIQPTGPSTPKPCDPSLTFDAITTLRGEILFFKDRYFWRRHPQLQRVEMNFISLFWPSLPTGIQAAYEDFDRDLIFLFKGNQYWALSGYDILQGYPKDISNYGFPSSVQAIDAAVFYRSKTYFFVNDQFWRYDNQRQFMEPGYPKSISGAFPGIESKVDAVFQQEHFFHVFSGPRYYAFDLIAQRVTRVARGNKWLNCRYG
smiles,measurement,setting,value
O=c1nc(-c2ccccn2)sc2ccccc12 [BTZO-1],% of control,[1],47%
same,% of control,[2],36%
same,Ki,[3],0.934 µM
CCOC(=O)c1cc2cc(-c3cc(C(=O)NCc4ccc(C(=O)O)cc4)nn3C)ccc2[nH]1 [BI 4394],IC50,[4],> 22 µM
same,IC50,[5],> 22 µM
same,IC50,[6],> 22 µM
same,IC50,[7],1.9 µM
same,IC50,[8],> 22 µM
same,IC50,[9],> 22 µM
same,Ki,[10],> 10 µM
same,IC50,[11],1.3 µM
same,IC50,[12],1.6 µM
same,% of inhibition,[13],60%
same,IC50,[14],1.1 µM
same,% of control,[15],0%
same,% of control,[16],0%
same,% of control,[17],43%
C[C@H](NC(=O)c1cnc2n1[C@](C)(Cc1ccc(C#N)cc1)C(=O)N2c1cc(Cl)c(F)c(Cl)c1)C(=O)NC1(c2ccccn2)CC1 [BI 1950],% of inhibition,[18],26%
same,% of inhibition,[19],72%
same,% of control,[20],49%
same,% of control,[21],24%
same,% of control,[22],34%
Cn1nc(C(=O)NCc2ccc(C(=O)O)cc2)cc1-c1ccc2[nH]ccc2c1 [BI 4395],% of control,[23],23%
same,% of control,[24],31%
same,Ki,[25],> 10 µM
same,% of control,[26],33%
O=C(Nc1ccc(-n2nc(-c3cccnc3)cc2C(F)(F)F)cn1)c1ccc(-c2ccccc2)c(F)c1 [BI 2049],Ki,[27],> 10 µM
O=C1NC(c2ccccn2)Sc2ccccc21 (stereo unspecified) [BTZO-4],% of control,[28],42%
same,Kd,[29],> 10 µM
same,% of control,[30],0%
same,% of inhibition,[31],32.4%
same,% of inhibition,[32],49.9%
same,Kd,[33],> 10 µM
CN(C)C(=O)/C(C#N)=C/c1ccc(-c2nc3cnc4c(ccn4C)c3n2C2CCCCC2)o1,% of control,[34],82%
same,IC50,[35],0.17 µM
O=C(c1ccc(F)c(F)c1Nc1ccc(I)cc1F)N1CC(O)([C@@H]2CCCCN2)C1 [COBIMETINIB],IC50,[36],0.031 µM
same,IC50,[37],0.023 µM
CN([C@@H]1CCc2c(CC(=O)O)c3ccccc3n2C1)S(=O)(=O)c1ccc(F)cc1 [MK-7246],Ki,[38],1.11 µM
same,% of control,[39],34%
same,% of control,[40],44%
CC(C)(C)OC(=O)N1CCCC1CNC1CCC(c2cc(F)ccc2F)(S(=O)(=O)c2ccc(Cl)cc2)CC1 (stereo unspecified) [GSI-NC],Ki,[41],> 10 µM
